Experimental data taken from PMC8429728, “TNK1 is a ubiquitin-binding and 14-3-3-regulated kinase that can be targeted to block tumor growth” (Nature Communications, 2021).
Where two headings read alike, the source gives them in different places.

Tests used:
Test in all cases: biochemical
Parameters in all cases: Reaction Biology 371-kinase panel at Km ATP, per cent enzyme activity relative to DMSO, single dose in duplicate
DMPK2 = biological target: T1, DMPK2 (Homo sapiens, UniProt Q6DT37); settings: duplicate measurements, Km ATP; read-out: % Enzyme Activity (relative to DMSO controls) / TP-0005801 (0.3µM) / Data 1
T1 construct: gene CDC42BPG
Method in brief: (§1)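 Activity of each kinase, normalised to DMSO-treated controls, served as the read-out. The inhibitor was tested at 300 nM against 371 kinases in vitro. Curves fitted by variable-slope sigmoidal dose-response, constrained to a bottom of 0, gave IC50.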

STK38L/NDR2 = STK38L/NDR2 (Homo sapiens, UniProt Q9Y2H1); settings: duplicate measurements, Km ATP
Method in brief: as §1

FER = FER (Homo sapiens, UniProt P16591); settings: duplicate measurements, Km ATP
Method in brief: as §1

HIPK1 = HIPK1 (Homo sapiens, UniProt Q86Z02); settings: duplicate measurements, Km ATP
Method in brief: as §1

BRAF = BRAF (Homo sapiens, UniProt P15056); settings: duplicate measurements, Km ATP
Method in brief: as §1

SBK1 = SBK1 (Homo sapiens, UniProt Q52WX2); settings: duplicate measurements, Km ATP
Method in brief: as §1

PKN3/PRK3 = PKN3/PRK3 (Homo sapiens, UniProt Q6P5Z2); settings: duplicate measurements, Km ATP
Method in brief: as §1

GRK3 = GRK3 (Homo sapiens, UniProt P35626); settings: duplicate measurements, Km ATP
Method in brief: as §1

BTK = BTK (Homo sapiens, UniProt Q06187); settings: duplicate measurements, Km ATP
Method in brief: as §1

MLK1/MAP3K9 = MLK1/MAP3K9 (Homo sapiens, UniProt P80192); settings: duplicate measurements, Km ATP
Method in brief: as §1

MEK5 = biological target: T2, MEK5 (Homo sapiens, UniProt Q13163); settings: duplicate measurements, Km ATP
T2 construct: gene MAP2K5
Method in brief: as §1

HIPK2 = HIPK2 (Homo sapiens, UniProt Q9H2X6); settings: duplicate measurements, Km ATP
Method in brief: as §1

GRK7 = GRK7 (Homo sapiens, UniProt Q8WTQ7); settings: duplicate measurements, Km ATP
Method in brief: as §1

FMS = biological target: T3, FMS (Homo sapiens, UniProt P07333); settings: duplicate measurements, Km ATP
T3 construct: gene CSF1R
Method in brief: as §1

FGR = FGR (Homo sapiens, UniProt P09769); settings: duplicate measurements, Km ATP
Method in brief: as §1

ERBB4/HER4 = ERBB4/HER4 (Homo sapiens, UniProt Q15303); settings: duplicate measurements, Km ATP
Method in brief: as §1

ABL2/ARG = ABL2/ARG (Homo sapiens, UniProt P42684); settings: duplicate measurements, Km ATP
Method in brief: as §1

CLK1 = CLK1 (Homo sapiens, UniProt P49759); settings: duplicate measurements, Km ATP
Method in brief: as §1

LATS2 = LATS2 (Homo sapiens, UniProt Q9NRM7); settings: duplicate measurements, Km ATP
Method in brief: as §1

SNARK/NUAK2 = SNARK/NUAK2 (Homo sapiens, UniProt Q9H093); settings: duplicate measurements, Km ATP; read-out: % Enzyme Activity (relative to DMSO controls) / TP-0005801 (0.3µM) / Data 1
Method in brief: as §1

[1] = read-out: % Enzyme Activity (relative to DMSO controls) / TP-0005801 (0.3µM) / Data 1
[2] = read-out: % Enzyme Activity (relative to DMSO controls) / TP-0005801 (0.3µM) / Data 2

HIPK1, sequence (Q86Z02 whole entry): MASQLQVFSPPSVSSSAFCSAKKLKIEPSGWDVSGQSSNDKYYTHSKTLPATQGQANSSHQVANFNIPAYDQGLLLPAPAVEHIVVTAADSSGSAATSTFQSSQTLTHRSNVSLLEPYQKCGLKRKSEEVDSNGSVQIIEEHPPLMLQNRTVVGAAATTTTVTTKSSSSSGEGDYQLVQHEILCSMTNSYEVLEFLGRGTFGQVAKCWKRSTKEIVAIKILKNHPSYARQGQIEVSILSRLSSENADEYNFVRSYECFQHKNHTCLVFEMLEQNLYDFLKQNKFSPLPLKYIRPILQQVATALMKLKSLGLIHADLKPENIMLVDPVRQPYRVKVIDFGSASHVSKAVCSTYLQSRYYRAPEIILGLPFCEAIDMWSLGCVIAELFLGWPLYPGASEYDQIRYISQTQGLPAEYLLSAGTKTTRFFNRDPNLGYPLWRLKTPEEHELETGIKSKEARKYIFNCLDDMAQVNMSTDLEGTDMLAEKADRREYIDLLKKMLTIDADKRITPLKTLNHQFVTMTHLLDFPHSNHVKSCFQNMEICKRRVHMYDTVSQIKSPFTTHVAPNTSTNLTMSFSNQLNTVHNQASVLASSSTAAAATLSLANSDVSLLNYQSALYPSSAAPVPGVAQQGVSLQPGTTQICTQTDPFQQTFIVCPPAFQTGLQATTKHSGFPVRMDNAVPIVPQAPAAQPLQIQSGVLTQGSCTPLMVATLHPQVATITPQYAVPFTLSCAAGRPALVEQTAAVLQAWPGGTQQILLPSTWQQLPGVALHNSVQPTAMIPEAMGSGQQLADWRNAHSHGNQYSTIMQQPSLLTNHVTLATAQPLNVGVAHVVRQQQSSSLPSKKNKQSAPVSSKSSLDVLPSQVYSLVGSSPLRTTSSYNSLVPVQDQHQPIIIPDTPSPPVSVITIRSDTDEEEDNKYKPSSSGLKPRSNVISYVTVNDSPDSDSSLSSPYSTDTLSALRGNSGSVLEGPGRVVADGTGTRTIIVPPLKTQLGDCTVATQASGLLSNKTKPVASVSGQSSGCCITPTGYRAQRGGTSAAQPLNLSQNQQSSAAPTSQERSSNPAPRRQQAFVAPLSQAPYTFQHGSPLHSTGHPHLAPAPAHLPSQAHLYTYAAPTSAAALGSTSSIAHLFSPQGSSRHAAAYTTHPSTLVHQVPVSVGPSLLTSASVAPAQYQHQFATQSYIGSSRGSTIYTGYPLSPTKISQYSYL
STK38L/NDR2, sequence (Q9Y2H1 whole entry): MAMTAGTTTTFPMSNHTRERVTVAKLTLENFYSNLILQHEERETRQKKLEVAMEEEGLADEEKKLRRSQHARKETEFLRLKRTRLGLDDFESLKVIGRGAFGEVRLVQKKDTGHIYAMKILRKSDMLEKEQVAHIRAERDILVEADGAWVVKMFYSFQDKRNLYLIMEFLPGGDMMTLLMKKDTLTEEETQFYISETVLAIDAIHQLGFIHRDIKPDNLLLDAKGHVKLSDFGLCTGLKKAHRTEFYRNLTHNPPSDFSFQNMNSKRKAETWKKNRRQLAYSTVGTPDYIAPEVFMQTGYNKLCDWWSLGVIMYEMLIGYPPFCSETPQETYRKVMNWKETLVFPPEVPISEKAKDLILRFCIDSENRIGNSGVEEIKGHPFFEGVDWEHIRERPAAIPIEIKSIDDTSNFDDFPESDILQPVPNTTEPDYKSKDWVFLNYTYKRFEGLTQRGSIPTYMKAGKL
BTK, sequence (Q06187 whole entry): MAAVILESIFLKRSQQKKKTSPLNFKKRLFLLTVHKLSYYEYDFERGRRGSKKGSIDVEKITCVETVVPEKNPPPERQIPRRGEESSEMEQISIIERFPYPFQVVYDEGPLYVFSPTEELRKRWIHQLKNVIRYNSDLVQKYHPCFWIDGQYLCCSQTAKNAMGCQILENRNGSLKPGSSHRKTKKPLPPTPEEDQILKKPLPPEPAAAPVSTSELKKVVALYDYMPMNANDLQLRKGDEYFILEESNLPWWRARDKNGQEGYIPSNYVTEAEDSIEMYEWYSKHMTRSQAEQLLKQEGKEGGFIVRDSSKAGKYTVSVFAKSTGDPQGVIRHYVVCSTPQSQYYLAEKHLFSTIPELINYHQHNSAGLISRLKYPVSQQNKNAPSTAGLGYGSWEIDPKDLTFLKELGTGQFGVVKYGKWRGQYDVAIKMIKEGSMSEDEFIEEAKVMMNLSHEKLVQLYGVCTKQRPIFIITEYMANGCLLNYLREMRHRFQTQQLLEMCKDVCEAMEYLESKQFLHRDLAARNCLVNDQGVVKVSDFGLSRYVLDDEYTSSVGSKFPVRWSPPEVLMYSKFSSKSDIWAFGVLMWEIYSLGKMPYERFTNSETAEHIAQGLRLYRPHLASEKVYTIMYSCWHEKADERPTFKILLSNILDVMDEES
HIPK2, sequence (Q9H2X6 whole entry): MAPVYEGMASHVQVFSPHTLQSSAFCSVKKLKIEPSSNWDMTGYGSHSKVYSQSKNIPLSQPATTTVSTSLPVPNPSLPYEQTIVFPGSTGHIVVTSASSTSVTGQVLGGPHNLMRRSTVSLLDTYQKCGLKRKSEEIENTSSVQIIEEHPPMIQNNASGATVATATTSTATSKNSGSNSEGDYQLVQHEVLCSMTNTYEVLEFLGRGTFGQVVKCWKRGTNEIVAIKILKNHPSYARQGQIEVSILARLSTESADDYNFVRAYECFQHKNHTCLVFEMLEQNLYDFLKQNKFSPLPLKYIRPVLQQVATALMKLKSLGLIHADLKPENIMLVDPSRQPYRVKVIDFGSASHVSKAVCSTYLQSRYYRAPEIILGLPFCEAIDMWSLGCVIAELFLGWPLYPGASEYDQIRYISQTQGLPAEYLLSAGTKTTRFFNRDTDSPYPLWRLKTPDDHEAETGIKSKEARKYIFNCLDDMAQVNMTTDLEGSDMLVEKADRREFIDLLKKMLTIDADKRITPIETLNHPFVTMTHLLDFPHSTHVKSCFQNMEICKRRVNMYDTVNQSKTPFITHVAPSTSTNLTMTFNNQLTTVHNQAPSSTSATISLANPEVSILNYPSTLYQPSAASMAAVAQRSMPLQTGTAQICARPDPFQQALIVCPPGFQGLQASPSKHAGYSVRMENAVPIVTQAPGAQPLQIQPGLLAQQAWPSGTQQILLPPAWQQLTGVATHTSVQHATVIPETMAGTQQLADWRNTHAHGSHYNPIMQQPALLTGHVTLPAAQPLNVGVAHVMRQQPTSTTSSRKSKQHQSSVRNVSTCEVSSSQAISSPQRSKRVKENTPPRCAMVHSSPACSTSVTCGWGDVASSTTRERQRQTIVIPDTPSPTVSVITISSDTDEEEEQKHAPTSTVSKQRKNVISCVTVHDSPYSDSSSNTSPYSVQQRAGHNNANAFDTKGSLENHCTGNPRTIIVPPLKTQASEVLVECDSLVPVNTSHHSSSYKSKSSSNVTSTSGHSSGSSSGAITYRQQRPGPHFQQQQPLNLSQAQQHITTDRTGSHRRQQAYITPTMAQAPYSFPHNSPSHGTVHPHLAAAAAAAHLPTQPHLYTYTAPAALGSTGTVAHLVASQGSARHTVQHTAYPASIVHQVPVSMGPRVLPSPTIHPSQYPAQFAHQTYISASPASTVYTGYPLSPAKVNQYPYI
LATS2, sequence (Q9NRM7 whole entry): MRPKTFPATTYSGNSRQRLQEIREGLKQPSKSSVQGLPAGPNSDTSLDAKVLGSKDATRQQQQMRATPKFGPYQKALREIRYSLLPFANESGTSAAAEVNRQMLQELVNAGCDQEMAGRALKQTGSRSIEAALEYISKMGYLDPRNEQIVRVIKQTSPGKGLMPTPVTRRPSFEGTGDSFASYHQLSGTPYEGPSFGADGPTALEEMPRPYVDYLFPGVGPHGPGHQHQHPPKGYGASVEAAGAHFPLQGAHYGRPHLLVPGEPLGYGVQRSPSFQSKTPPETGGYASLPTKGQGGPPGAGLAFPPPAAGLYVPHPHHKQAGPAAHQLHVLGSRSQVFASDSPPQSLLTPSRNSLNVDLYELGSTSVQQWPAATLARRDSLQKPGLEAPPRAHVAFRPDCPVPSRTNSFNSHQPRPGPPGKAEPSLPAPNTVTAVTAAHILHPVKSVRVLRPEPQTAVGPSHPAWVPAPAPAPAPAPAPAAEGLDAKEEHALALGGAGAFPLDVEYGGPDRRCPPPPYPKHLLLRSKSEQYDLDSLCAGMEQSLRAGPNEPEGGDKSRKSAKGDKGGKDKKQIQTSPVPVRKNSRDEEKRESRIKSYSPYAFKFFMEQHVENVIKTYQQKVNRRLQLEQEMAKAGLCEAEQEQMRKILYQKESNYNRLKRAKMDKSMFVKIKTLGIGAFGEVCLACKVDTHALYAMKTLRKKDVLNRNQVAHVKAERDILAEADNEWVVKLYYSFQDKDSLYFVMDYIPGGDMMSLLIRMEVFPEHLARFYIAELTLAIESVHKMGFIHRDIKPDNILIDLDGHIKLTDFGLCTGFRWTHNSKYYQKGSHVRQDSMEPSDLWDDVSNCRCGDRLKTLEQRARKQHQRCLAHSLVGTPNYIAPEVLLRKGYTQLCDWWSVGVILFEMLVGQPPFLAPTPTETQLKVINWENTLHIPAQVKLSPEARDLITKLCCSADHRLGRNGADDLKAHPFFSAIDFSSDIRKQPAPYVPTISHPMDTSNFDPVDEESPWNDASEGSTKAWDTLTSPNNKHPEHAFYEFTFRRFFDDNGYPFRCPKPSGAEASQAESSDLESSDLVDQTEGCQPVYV
T2 sequence (Q13163 whole entry): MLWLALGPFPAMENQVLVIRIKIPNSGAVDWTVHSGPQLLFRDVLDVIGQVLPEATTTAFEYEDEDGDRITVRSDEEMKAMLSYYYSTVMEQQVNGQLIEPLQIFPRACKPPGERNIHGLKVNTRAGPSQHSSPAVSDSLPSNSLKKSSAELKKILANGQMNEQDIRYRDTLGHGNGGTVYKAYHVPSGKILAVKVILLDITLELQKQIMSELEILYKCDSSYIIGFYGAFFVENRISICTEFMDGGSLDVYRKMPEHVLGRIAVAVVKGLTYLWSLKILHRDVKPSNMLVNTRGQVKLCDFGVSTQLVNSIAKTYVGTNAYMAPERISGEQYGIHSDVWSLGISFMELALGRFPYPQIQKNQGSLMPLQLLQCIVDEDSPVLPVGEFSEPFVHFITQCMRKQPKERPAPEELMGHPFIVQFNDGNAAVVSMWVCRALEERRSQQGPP

remaining activity at 0.3 µM (DMPK2): 109% | remaining activity at 0.3 µM (STK38L/NDR2; [1]): 53.1% | remaining activity at 0.3 µM (STK38L/NDR2; [2]): 52.8% | remaining activity at 0.3 µM (FER; [1]): 11.7% | remaining activity at 0.3 µM (FER; [2]): 11.4% | remaining activity at 0.3 µM (HIPK1; [1]): 90.8% | remaining activity at 0.3 µM (HIPK1; [2]): 89.2% | remaining activity at 0.3 µM (BRAF; [1]): 87.3% | remaining activity at 0.3 µM (BRAF; [2]): 85.1% | remaining activity at 0.3 µM (SBK1; [1]): 99% | remaining activity at 0.3 µM (SBK1; [2]): 95.5% | remaining activity at 0.3 µM (PKN3/PRK3; [1]): 95.4% | remaining activity at 0.3 µM (PKN3/PRK3; [2]): 93.7% | remaining activity at 0.3 µM (GRK3; [1]): 93.9% | remaining activity at 0.3 µM (GRK3; [2]): 93% | remaining activity at 0.3 µM (BTK; [1]): 93.6% | remaining activity at 0.3 µM (BTK; [2]): 92.1% | remaining activity at 0.3 µM (MLK1/MAP3K9; [1]): 77.2% | remaining activity at 0.3 µM (MLK1/MAP3K9; [2]): 76.6% | remaining activity at 0.3 µM (MEK5; [1]): 110% | remaining activity at 0.3 µM (MEK5; [2]): 108% | remaining activity at 0.3 µM (HIPK2; [1]): 106% | remaining activity at 0.3 µM (HIPK2; [2]): 96.6% | remaining activity at 0.3 µM (GRK7; [1]): 105% | remaining activity at 0.3 µM (GRK7; [2]): 97.5% | remaining activity at 0.3 µM (FMS; [1]): 56.3% | remaining activity at 0.3 µM (FMS; [2]): 55.6% | remaining activity at 0.3 µM (FGR; [1]): 109% | remaining activity at 0.3 µM (FGR; [2]): 105% | remaining activity at 0.3 µM (ERBB4/HER4; [1]): 103% | remaining activity at 0.3 µM (ERBB4/HER4; [2]): 102% | remaining activity at 0.3 µM (ABL2/ARG; [1]): 93.2% | remaining activity at 0.3 µM (ABL2/ARG; [2]): 91.6% | remaining activity at 0.3 µM (CLK1; [1]): 11.9% | remaining activity at 0.3 µM (CLK1; [2]): 11.7% | remaining activity at 0.3 µM (LATS2; [1]): 95.8% | remaining activity at 0.3 µM (LATS2; [2]): 92.4% | remaining activity at 0.3 µM (SNARK/NUAK2): 30.2%
SMILES: COc1cc(N2CCN(C)CC2)c(C)cc1Nc1ncc(Br)c(Nc2cccnc2N(C)C)n1 [TP-5801]
